The values that follow come from patent US6472348B1, “Pyridone derivatives and herbicides” (Kumiai Chemical Industry Co., Ltd., priority 1996, dated 2002).

The test system of series [1] is Diaitaria ciliaris (Di). Briefly: Test Example 6: crop plant selectivity by upland field soil treatment (soybean), herbicidal effects. It is filed as in vivo. The settings on record: 21st day after application. How it is done: (§1) (Test on Crop Plant Selectivity by Upland Field Soil Treatment)
(§2) In a plastic pot (surface area: 600 cm^2) filled with sand, soybean (Gl), Diaitaria ciliaris (Di), green foxtail (Se), Johnsongrass (So), pale smartweed (Po), slender amaranth (Am), common lambsquarters (Ch) and China jute (Ab) were sown and covered with soil. […] The plants were then cultured in a green house, and the evaluation of the herbicidal effects and phytotoxicity was conducted on the 21st day after the application in accordance with the standards as identified in Table 47. Symbol—represents “not tested”.

For series [2], the system named is Johnsongrass (So). The series is described as above. It is filed as in vivo. The settings on record: 21st day after application. How it is done:
as §1, §2

The test system of series [3] is Diaitaria ciliaris (Di). Briefly: Test Example 5: crop plant selectivity by upland field soil treatment (wheat), herbicidal effects. It is filed as in vivo. The note with it: 21st day after application. As to the method: as §1
In a plastic pot (surface area: 600 cm^2) filled with sand, wheat (Tr), Diaitaria ciliaris (Di), green foxtail (Se), pale smartweed (Po), slender amaranth (Am), common lambsquarters (Ch) and China jute (Ab) were sown and covered with soil. […] The plants were then cultured in a green house, and the evaluation of the herbicidal effects and phytotoxicity was conducted on the 21st day after the application in accordance with the standards as identified in Table 47. Symbol—represents “not tested”.

Series [4] concerns slender amaranth (Am). Kind of series: Test Example 10: crop plant selectivity by upland field foliage treatment (soybean), herbicidal effects. The settings on record: dose 1.6 g ai/10a, 14th day after treatment. It is filed as in vivo. In short, it runs like this:
(§3)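 Soybean and weeds were grown in sand in a greenhouse for 2 weeks before foliar treatment. Herbicidal effect on weeds and phytotoxicity on soybean were scored on day 14 after treatment against a graded scale.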

In series [5] the test system is pale smartweed (Po). The description is as above. It is filed as in vivo. The settings on record: dose 1.6 g ai/10a, 14th day after treatment. The method, boiled down: as §3
Series [6] concerns China jute (Ab). The series is described as above. It is filed as in vivo. The note with it: dose 1.6 g ai/10a, 14th day after treatment. In short, it runs like this:
as §3

The test system of series [7] is cotton (Go). Kind of series: Test Example 8: crop plant selectivity by upland field foliage treatment (cotton), phytotoxicity. It is filed as in vivo. The settings on record: dose 1.6 g ai/10a, 14th day after treatment. As to the method: (§4) (Test on Crop Plant Selectivity by Upland Field Foliage Treatment)
(§5) In a plastic pot (surface area: 600 cm^2) filled with sand, cotton (Go), pale smartweed (Po), slender amaranth (Am), common lambsquarters (Ch) and China jute (Ab) were sown and cultured in a green house for 2 weeks. […] The plants were then cultured in a green house, and the evaluation of the herbicidal effects and phytotoxicity was conducted on the 14th day after the treatment in accordance with the standards as identified in Table 47.

Series [8] deals with common lambsquarters (Ch). Briefly: Test Example 8: crop plant selectivity by upland field foliage treatment (cotton), herbicidal effects. It is filed as in vivo. The settings on record: dose 1.6 g ai/10a, 14th day after treatment. How it is done: as §4, §5
Series [9] relates to slender amaranth (Am). Described as above. It is filed as in vivo. The note with it: dose 1.6 g ai/10a, 14th day after treatment. How it is done: as §4, §5
Series [10] has as its system pale smartweed (Po). Described as above. It is filed as in vivo. The note with it: dose 1.6 g ai/10a, 14th day after treatment. How it is done:
as §4, §5

Series [11] relates to China jute (Ab). Described as above. The note with it: dose 1.6 g ai/10a, 14th day after treatment. It is filed as in vivo. As to the method:
as §4, §5

Turning to `C#CC(C)Oc1cc(-c2cn(C)c(C(F)(F)F)cc2=O)c(F)cc1Cl` (racemic) [Compound 6-10], the “Herbicidal effects Di” value in series [1] (dose 1.6 g ai/10a) and in series [3] (dose 1.6 g ai/10a) was 5 throughout. Further, in series [2] (dose 1.6 g ai/10a), the “Herbicidal effects So” value stood at 5.

Consider `Cn1c(C(F)(F)F)ccc(-c2cc(OCCCl)c(Cl)cc2F)c1=O` [1-171], for which the “Herbicidal effects Am” value in series [4] came out at 5. Also, the “Herbicidal effects Po” value in [5] amounted to 5. For the same compound, the “Herbicidal effects Ab” value in [6] is listed as 5.

Consider `C=CC(C)Oc1cc(-c2ccc(C(F)(F)F)n(C)c2=O)c(F)cc1Cl` (stereo not shown) [Compound 1-182], for which the “Phytotoxicity Go” value in series [7] was found to be 2. In addition, the “Herbicidal effects Ch” value in series [8] is recorded as 5. Also, in [9], the “Herbicidal effects Am” value worked out at 5. For the same compound, the “Herbicidal effects Po” value in series [10] is 5. In addition, the “Herbicidal effects Ab” value in series [11] came out at 5.

As to `CCON=Cc1cc(-c2ccc(C(F)(F)F)n(C)c2=O)c(F)cc1Cl` [Compound 1-187], in [7], the “Phytotoxicity Go” value is 2. The “Herbicidal effects Ch” value in series [8] is given as 5. For the same compound, the “Herbicidal effects Am” value in series [9] and in [4] was 5 throughout. Besides, the “Herbicidal effects Po” value in [10] and in series [5] was 5 throughout. In addition, the “Herbicidal effects Ab” value in [11] and in [6] was 5 throughout.

Consider `CSCOc1cc(-c2ccc(C(F)(F)F)n(C)c2=O)c(F)cc1Cl` [Compound 1-208], for which the “Herbicidal effects Am” value in series [4] was determined as 5. Further, in series [5], the “Herbicidal effects Po” value is reported as 5. For the same compound, the “Herbicidal effects Ab” value in [6] is recorded as 5.

As for `C=CCN1C(=O)COc2cc(F)c(-c3ccc(C(F)(F)F)n(C)c3=O)cc21` [Compound 2-7], the “Herbicidal effects Di” value in series [1] (dose 1.6 g ai/10a), in series [1] (dose 6.3 g ai/10a) and in [3] (dose 1.6 g ai/10a) was 5 each time. Besides, the “Herbicidal effects So” value in series [2] (dose 1.6 g ai/10a) and in [2] (dose 6.3 g ai/10a) was 5 each time.

Turning to `CCCc1cc2c(-c3ccc(C(F)(F)F)n(C)c3=O)c(F)cc(Cl)c2o1` [Compound 4-3], the “Herbicidal effects Am” value in [4] came to 5. Also, the “Herbicidal effects Po” value in series [5] is 5. In addition, the “Herbicidal effects Ab” value in series [6] amounted to 5.

Take `CCc1cc2c(Cl)cc(F)c(-c3ccc(C(F)(F)F)n(C)c3=O)c2o1` [Compound 5-2]: the “Herbicidal effects Am” value in series [4] was determined as 5. The “Herbicidal effects Po” value in series [5] is recorded as 5. For the same compound, the “Herbicidal effects Ab” value in series [6] is 5.

`Cn1c(C(F)(F)F)ccc(-c2cc(C#N)c(Cl)cc2F)c1=O` [Compound No. 1-119, 3-(4-chloro-5-cyano-2-fluorophenyl)-1-methyl-6-trifluoromethyl-2(1H)-pyridone]: the melting point lay in the range of 180 to 181 °C. Also, in [4], the “Herbicidal effects Am” value turned out to be 5. Further, in series [5], the “Herbicidal effects Po” value came to 5. Besides, in series [6], the “Herbicidal effects Ab” value amounted to 4.

`CCCC(=O)c1cc(-c2ccc(C(F)(F)F)n(C)c2=O)c(F)cc1Cl` [Compound No. 1-194, 3-[4-chloro-2-fluoro-5-(1-oxobutyl)phenyl]-1-methyl-6-trifluoromethyl-2(1H)-pyridone]: in series [7], the “Phytotoxicity Go” value was 2. Also, in series [8], the “Herbicidal effects Ch” value is 5. The “Herbicidal effects Am” value in series [9] is 5. Moreover, in series [10], the “Herbicidal effects Po” value was 5. The “Herbicidal effects Ab” value in [11] stood at 5.

Consider `C#CCN1C(=O)COc2cc(F)c(-c3ccc(C(F)(F)F)n(C)c3=O)cc21` [Compound No. 2-1, 3-[7-fluoro-2,3-dihydro-4-(2-propynyl)-1,4-benzoxazin-3-on-6-yl]-1-methyl-6-trifluoromethyl-2(1H)-pyridone], for which the “Herbicidal effects Di” value in [1] (dose 1.6 g ai/10a), in [1] (dose 6.3 g ai/10a) and in series [3] (dose 1.6 g ai/10a) was 5 each time. Further, the “Herbicidal effects So” value in series [2] (dose 1.6 g ai/10a) and in series [2] (dose 6.3 g ai/10a) was 5 throughout.

Turning to `C#CCn1c(=O)sc2cc(F)c(-c3ccc(C(F)(F)F)n(C)c3=O)cc21` [Compound No. 3-1, 3-[6-fluoro-3-(2-propynyl)-benzothiazolin-2-on-5-yl]-1-methyl-6-trifluoromethyl-2(1H)-pyridone], the melting point is 150 to 151 °C.

On to `COCc1cc2c(-c3ccc(C(F)(F)F)n(C)c3=O)c(F)cc(Cl)c2o1` [Compound No. 4-4, 3-(7-chloro-5-fluoro-2-methoxymethylbenzofuran-4-yl)-1-methyl-6-trifluoromethyl-2-(1H)-pyridone], for which the melting point was 136 to 137 °C.

`Cn1c(C(F)(F)F)ccc(-c2c(F)cc(Cl)c3oc(CO)cc23)c1=O` [Compound No. 4-5, 3-(7-chloro-5-fluoro-2-hydroxymethylbenzofuran-4-yl)-1-methyl-6-trifluoromethyl-2-(1H)-pyridone] gave a melting point of 145 to 147 °C.

`Cn1c(C(F)(F)F)ccc(-c2c(F)cc(Cl)c3occc23)c1=O` [Compound No. 4-28, 3-(7-chloro-5-fluorobenzofuran-4-yl)-1-methyl-6-trifluoromethyl-2-(1H)-pyridone] yielded a melting point of 178 to 179 °C.

As for `Cn1cc(-c2cc(Oc3ccccc3)c(Cl)cc2F)c(=O)cc1C(F)(F)F` [Compound No. 6-19, 5-(4-chloro-2-fluoro-5-phenoxyphenyl)-1-methyl-2-trifluoromethyl-4(1H)-pyridone], the melting point was in the range of 159 to 161 °C. For the same compound, the “Herbicidal effects Di” value in series [1] (dose 1.6 g ai/10a) was found to be 5. Further, in [1] (dose 6.3 g ai/10a), the “Herbicidal effects Di” value was 5. Also, the “Herbicidal effects So” value in series [2] (dose 1.6 g ai/10a) came out at 4. Moreover, the “Herbicidal effects So” value in series [2] (dose 6.3 g ai/10a) is listed as 5. In addition, the “Herbicidal effects Di” value in [3] (dose 1.6 g ai/10a) amounted to 5. In addition, in series [3] (dose 6.3 g ai/10a), the “Herbicidal effects Di” value stood at 5.

Consider `Cc1cc2c(-c3cn(C)c(C(F)(F)F)cc3=O)c(F)cc(Cl)c2o1` [Compound No. 9-1, 5-(7-chloro-5-fluoro-2-methylbenzofuran-4-yl)-1-methyl-2-trifluoromethyl-4(1H)-pyridone], for which the melting point was 208 to 211 °C. The “Herbicidal effects Di” value in series [3] (dose 1.6 g ai/10a) is reported as 5. Further, the “Herbicidal effects Di” value in series [3] (dose 6.3 g ai/10a) is given as 5.

The term melting point denotes the temperature of the solid-liquid transition.
